Test results taken from patent US6964952B2, “Therapeutic composition for broad spectrum dermal disease” (Doosan Corporation, priority 2001, dated 2005).

Columns and labels:
protein kinase C (PKC) = test: Inhibition of protein kinase C in mouse epidermal cell line Pam212; type: cell-based; details: Pam212 cells treated at 100 μM and 400 μM; FIG. 6
Method: An anti-inflammation effect of the cream composition according to the invention was evaluated by assessing inhibition of protein kinase C (PKC) in mouse epidermal cell line (Pam212). The cultured epidermal cells at 2×10^7 cells/ml were treated with phytosphingosine or derivatives thereof at final concentrations of 100 μM, and 400 μM. After washing with PBS, the cells were disrupted using a homogenizer and centrifuged. The supernatant was passed through a DE52 column to obtain a fraction containing PKC. To measure the amount of activated PKC in the fractions, 5 μl each of a PKC coactivation 5× buffer, PKC activation 5× buffer, PKC biotinylated peptide substrate and ^32P-ATP mixture were added to a tube. For a negative control, 5 μl each of a PKC coactivation 5× buffer, Control 5× buffer, PKC biotinylated peptide substrate and ^32P-ATP mixture were measured. To the tubes were added 5 μl of respective PKC fractions. The reaction was performed at 30° C. for 5 min. After terminating the reaction by adding a 12.5 μl stop solution, a 10 μl aliquot was dropped on a SAM^2™ membrane. The membrane was washed 1× with 2M NaCl for 30 sec, 3× with 2M NaCl for 2 min, 4× with a solution of 1% H3PO4 and 2M NaCl for 2 min, and 2× with distilled water for 30 sec, followed by drying. Radioactivity was measured to examine a PKC inhibition effect.

[1] = test system: full-thickness circular ear wounds; test: Wound repair in rabbits (6 mm punch wounds in ears); type: in vivo, New Zealand White rabbits; details: rabbit ear wounds; 5, 10, 50 μM, 10 μl every second day; FIG. 3
Method: As an experimental animal model, female New Zealand White rabbits (2 kg in body weight) were employed to evaluate the efficacy of phytosphingosine and derivatives thereof on wound healing.
The rabbits were anesthetized with an intramuscular injection of ketamine (3 to 4 mg/kg). After removing hairs and a horny layer (stratum corneum) inside the both ears, 4 full-thickness circular wounds were created in each ear using a 6 mm-punch biopsy. As a control, PBS solution containing 0.1% BSA was applied to the wound regions at an amount of 10 μl every second day. For test groups, a composition comprising lysophosphatidic acid only, a composition comprising sphingolipid long-chain base only, and a composition comprising a combination thereof were applied each at varying concentrations (5 μM, 10 μM and 50 μM) at a volume of 10 μl every second day. The wounds applied with those agents were sealed with Cathreep (Nichiban Co., Japan). On 4th and 8th day after application, the rabbits were sacrificed, and the wound areas were histologically examined.

Langerhans cells = test: Effect on number of Langerhans cells in skin explant; type: cell-based; details: 1% test sample
Method: Langerhans cells play a role in mediating immune response of the skin. Treatment of skin disorders related to a hypersensitive immune response can be accomplished by regulating either the number or the antigen-presenting ability of Langerhans cells. To examine the efficacy of sphingolipid long-chain base on the regulation of the number of Langerhans cells, a test was performed as follows. Each skin explant was applied with a 1% test sample containing sphingolipid.

human skin fibroblasts [2] = test: Tracing metabolic pathway in human skin fibroblasts (TLC of lipid extracts); type: in vitro ADME; details: 20 μM, 48 hrs
Method: Human skin fibroblasts were employed as the cell line for the study. Phytosphingosine, tetraacetyl phytosphingosine, and acetyl phytosphingosine were respectively dissolved in a mixture of ethanol/dodecane, preparing stock solutions at certain concentrations. When the fibroblasts became confluent in 7 cm diameter culture dishes, 20 μM of the respective test samples was added and cultured in a CO2 incubator for 48 hrs. Cells were harvested and treated according to a common extraction method for sphingolipids. Hydrolysis was performed under basic conditions at 37° C. overnight. The samples were passed through a reverse phase column to remove salts. The desalted lipid extracts were subjected to a TLC analysis on Silica gel 60 G plates (Merck, Germany), using chloroform/methanol/concentrated acetic acid (190/9/1) to elute neutral lipids.

human skin fibroblasts [3] = type: cell-based

Compound: CCCCCCCCCCCCCC[C@@H](O)[C@@H](O)[C@H](CO)NC(C)=O [N-acetyl phytosphingosine]
- PKC inhibition effect (protein kinase C (PKC)): excellent PKC inhibition effects

Compound: CCCCCCCCCCCCCC[C@@H](O)[C@@H](O)[C@@H](N)CO [phytosphingosine]
- Rates of wound healing (%) compared to untreated control group [1]: highly accelerate the rates of wound healing
- Efficacy on reducing the number of Langerhans cells (comparison) (Langerhans cells): greater than that of tetraacetyl phytosphingosine
- PKC inhibition effect (protein kinase C (PKC)): excellent PKC inhibition effects

Compound: lysophosphatidic acid
- Rates of wound healing (%) compared to untreated control group [1]: highly accelerate the rates of wound healing

Compound: tetraacetyl phytosphingosine
- Metabolic conversion within the cells (human skin fibroblasts [2]): converted to C2-phytoceramide
- PKC inhibition effect (protein kinase C (PKC)): excellent PKC inhibition effects
- Cytotoxicity relative to other sphingolipid long-chain bases (human skin fibroblasts [3]): lower cytotoxicity than other sphingolipid long-chain bases
